Source: patent US4927831A, “Spiro-isoquinoline-pyrrolidine tetrones and analogs thereof useful as aldose reductase inhibitors” (American Home Products, priority 1989, dated 1990)
Like-named read-outs stand apart in the source and are kept apart here.

What was measured:
aldose reductase = molecular target: T1, aldose reductase (Bos taurus, UniProt P16116); experiment: in vitro aldose reductase inhibition (modified Hayman and Kinoshita; enzyme from bovine lens); type: biochemical; conditions: read-out: % Inhibition IN VITRO
T1 construct: preparation of the enzyme from bovine lens; from tissue; host or cells: bovine lens
Procedure: Only two minor reagent changes were made: (a) The rinsing mixture was an aqueous 5% (w/v) trichloroacetic acid solution and (b) the stock solution was prepared by dissolving 25 mg of dulcitol in 100 ml of an aqueous trichloroacetic acid solution. [N.B.: For each experiment the average value found in the tissue from rats fed the glucose diet was subtracted from the individual values found in the corresponding tissue in galactose-fed rats to obtain the amount of polyol accumulated.] […] In the present case the procedure of Hayman and Kinoshita was modified in that the final chromatography step was omitted in the preparation of the enzyme from bovine lens. […] The figures under L and N represent the percentage decrease of dulcitol accumulation in the tissues of the lens and sciatic nerve, respectively, for treated rats as compared to untreated rats.

[1] = system: dulcitol accumulation in the lens; experiment: % lowering of dulcitol accumulation in lens (L) of galactosemic rats; type: in vivo, Sprague-Dawley; set-up: key: NS: statistically nonsignificant change; conditions: 4 days
Excerpt: (§1) The aldose reductase inhibiting property of the compounds of this invention and the utilization of the compounds in preventing, diminishing and alleviating diabetic complications are demonstrable in experiments using galactosemic rats, see Dvornik et al., Science, 182, 1146 (1973). Such experiments are exemplified hereinbelow after the listing of the following general comments pertaining to these experiments:
(§2) (a) Four or more groups of six male rats, 50-70 g, Sprague-Dawley strain, were used. The first group, the control group, was fed a mixture of laboratory chow (rodent Laboratory Chow, Purina) and glucose at 20% (w/w %) concentration. An untreated galactosemic group was fed a similar diet in which galactose was substituted for glucose. The third group was fed a diet prepared by mixing a given amount of the test compound with the galactose containing diet. The concentration of galactose in the diet of the treated groups was the same as that for the untreated galactosemic group.
(§3) (b) After four days, the animals were killed by euthanization. Both the lens and sciatic nerve were removed, weighed and stored frozen for polyol determination.
(§4) (c) The polyol determination was performed by a modification of the procedure of M. Kraml and L. Cosyns, Clin. Biochem., 2,373 (1969). Only two minor reagent changes were made: (a) The rinsing mixture was an aqueous 5% (w/v) trichloroacetic acid solution and (b) the stock solution was prepared by dissolving 25 mg of dulcitol in 100 ml of an aqueous trichloroacetic acid solution. [N.B.: For each experiment the average value found in the tissue from rats fed the glucose diet was subtracted from the individual values found in the corresponding tissue in galactose-fed rats to obtain the amount of polyol accumulated.] The aldose reductase inhibiting effects of the compounds of formula (I) were also tested by employing an in vitro testing procedure similar to that described by S. Hayman and J.H. Kinoshita, J. Biol. Chem., 240,877 (1965). In the present case the procedure of Hayman and Kinoshita was modified in that the final chromatography step was omitted in the preparation of the enzyme from bovine lens.
(§5) The figures under L and N represent the percentage decrease of dulcitol accumulation in the tissues of the lens and sciatic nerve, respectively, for treated rats as compared to untreated rats.

[2] = system: dulcitol accumulation in the sciatic nerve; experiment: % lowering of dulcitol accumulation in sciatic nerve (N) of galactosemic rats; type: in vivo, Sprague-Dawley; set-up: key: NS: statistically nonsignificant change; conditions: 4 days
Excerpt: as §1, §2, §3, §4, §5

Row | SMILES | inhibition at 0.04 µM (aldose reductase; 4 × 10^-8 M) | inhibition at 1 µM (aldose reductase) | inhibition at 10 µM (aldose reductase) | % Lowering Dulcitol Accumulation IN VIVO, L (lens) ([1]; 0.5 mg/kg in diet) | % Lowering Dulcitol Accumulation IN VIVO, L (lens) ([1]; 1.0 mg/kg in diet) | % Lowering Dulcitol Accumulation IN VIVO, N (sciatic nerve) ([2]; 0.5 mg/kg in diet) | % Lowering Dulcitol Accumulation IN VIVO, N (sciatic nerve) ([2]; 1.0 mg/kg in diet) | inhibition at 0.1 µM (aldose reductase; 10^-7 M) | inhibition at 10 µM (aldose reductase; 10^-5 M) | inhibition at 1 µM (aldose reductase; 10^-6 M) | further results
1 | O=C1CC2(C(=O)N1)C(=O)N(Cc1ccc(Br)cc1F)C(=O)c1ccccc12 (stereo not shown) [2-[(4-Bromo-2-fluorophenyl)methyl]spiro[isoquinoline-4(1H),3'-pyrrolidine]-1,2',3,5'(2H)-tetrone] | 51% | 94% | 96% | 12.0% | 16.0% | 82.0% | 95.0% | – | – | – | inhibition at 0.1 µM (aldose reductase): 94%; % Lowering Dulcitol Accumulation IN VIVO, L (lens) ([1]; 0.1 mg/kg in diet): NS; % Lowering Dulcitol Accumulation IN VIVO, L (lens) ([1]; 0.3 mg/kg in diet): NS; % Lowering Dulcitol Accumulation IN VIVO, N (sciatic nerve) ([2]; 0.1 mg/kg in diet): 26.0%; % Lowering Dulcitol Accumulation IN VIVO, N (sciatic nerve) ([2]; 0.3 mg/kg in diet): 60.0%
2 | O=C1C[C@@]2(C(=O)N1)C(=O)N(Cc1ccc(Br)cc1F)C(=O)c1ccccc12 [(R)-(+)-2-[(4-Bromo-2-fluorophenyl)methyl]spiro[isoquinoline-4(1H),3'-pyrrolidine]-1,2',3,5'(2H)-tetrone] | 87% | 93% | 96% | NS | – | 83% | – | 91% | – | – | % Lowering Dulcitol Accumulation IN VIVO, L (lens) ([1]; 5.1 mg/kg in diet): NS; % Lowering Dulcitol Accumulation IN VIVO, N (sciatic nerve) ([2]; 5.1 mg/kg in diet): 100%
3 | O=C1CC2(C(=O)N1)C(=O)N(Cc1ccc(Br)cc1F)C(=O)c1cc(F)ccc12 (stereo not shown) [[2-[(4-Bromo-2-fluorophenyl)methyl]-7-fluoro]spiro[isoquinoline-4(1H),3'-pyrrolidine]-1,2'3,5'(2H)-tetrone] | 42% | 93% | – | NS | NS | NS | 50.2% | 92% | 95% | – | –
4 | CCCN1C(=O)c2ccccc2C2(CC(=O)NC2=O)C1=O (stereo not shown) [H H (CH2)2 CH3, 2-Propylspiro[isoquinoline-4(1H),3'-pyrrolidine]-1,2',3,5'(2H)-tetrone] | 8% | – | 94% | – | – | – | – | 19% | – | 62% | % Lowering Dulcitol Accumulation IN VIVO, L (lens) ([1]; 11 mg/kg in diet): NS; % Lowering Dulcitol Accumulation IN VIVO, N (sciatic nerve) ([2]; 11 mg/kg in diet): NS
5 | O=C1C[C@]2(C(=O)N1)C(=O)N(Cc1ccc(Br)cc1F)C(=O)c1ccccc12 [(S)-(-)-2-[(4-Bromo-2-fluorophenyl)methyl]spiro[isoquinoline-4(1H),3'-pyrrolidine]-1,2',3,5'(2H)-tetrone] | – | – | – | NS | – | NS | – | – | 87% | 51% | % Lowering Dulcitol Accumulation IN VIVO, L (lens) ([1]; 4.8 mg/kg in diet): NS; % Lowering Dulcitol Accumulation IN VIVO, N (sciatic nerve) ([2]; 4.8 mg/kg in diet): 83%
6 | O=C1CC2(C(=O)N1)C(=O)N(Cc1ccc(Br)cc1F)C(=O)c1cccc(F)c12 (stereo not shown) [[2-[(4-Bromo-2-fluorophenyl)methyl]-5-fluoro]spiro[isoquinoline-4(1H),3'-pyrrolidine]-1,2',3,5'(2H)-tetrone] | 44% | – | – | 14.2% | 23.9% | 52.5% | 77.0% | 92% | 98% | 98% | –
7 | CN1C(=O)c2cc(Cl)ccc2C2(CC(=O)NC2=O)C1=O (stereo not shown) [H 7-Cl CH3, 7-Chloro-2-methylspiro[isoquinoline-4(1H)3'-pyrrolidine]-1,2',3,5'(2H)-tetrone] | 34% | – | – | – | – | – | – | 61% | 95% | 92% | % Lowering Dulcitol Accumulation IN VIVO, L (lens) ([1]; 3.0 mg/kg in diet): 14%; % Lowering Dulcitol Accumulation IN VIVO, N (sciatic nerve) ([2]; 3.0 mg/kg in diet): 21%
8 | O=C1CC2(C(=O)N1)C(=O)N(Cc1ccc(Br)cc1F)C(=O)c1c(F)cccc12 (stereo not shown) [[2-[(4-Bromo-2-fluorophenyl)methyl]-8-fluoro]spiro[isoquinoline-4(1H),3'-pyrrolidine]-1,2',3,5'(2H)-tetrone] | 43% | 94% | 96% | NS | 16.3% | 50.6% | 57.6% | 92% | – | – | –
9 | CN1C(=O)c2ccccc2C2(CC(=O)NC2=O)C1=O (stereo not shown) [H H CH3, 2-Methylspiro[isoquinoline-4(1H),3'-pyrrolidine]-1,2',3,5'(2H)-tetrone] | – | – | – | – | 15.0% | – | 37.0% | 63% | 95% | 91% | inhibition at 0.04 µM (aldose reductase): 38%; % Lowering Dulcitol Accumulation IN VIVO, L (lens) ([1]; 3.0 mg/kg in diet): 43.0%; % Lowering Dulcitol Accumulation IN VIVO, L (lens) ([1]; 10.0 mg/kg in diet): 62.0%; % Lowering Dulcitol Accumulation IN VIVO, L (lens) ([1]; 43.0 mg/kg in diet): 86.0%; % Lowering Dulcitol Accumulation IN VIVO, N (sciatic nerve) ([2]; 3.0 mg/kg in diet): 66.0%; % Lowering Dulcitol Accumulation IN VIVO, N (sciatic nerve) ([2]; 10.0 mg/kg in diet): 79.0%; % Lowering Dulcitol Accumulation IN VIVO, N (sciatic nerve) ([2]; 43.0 mg/kg in diet): 89.0%
10 | O=C1C[C@@]2(C(=O)N1)C(=O)N(Cc1ccc(Br)cc1F)C(=O)c1ccc(F)cc12 [(R)-(+)-[2-[(4-Bromo-2-fluorophenyl)methyl]-6-fluoro]spiro[isoquinoline-4(1H),3'-pyrrolidine]-1,2',3,5'(2H)-tetrone] | – | 95% | 99% | – | – | – | – | – | – | – | inhibition at 0.04 µM (aldose reductase): 93%; inhibition at 0.1 µM (aldose reductase): 93%; % Lowering Dulcitol Accumulation IN VIVO, L (lens) ([1]; 0.4 mg/kg in diet): 31%; % Lowering Dulcitol Accumulation IN VIVO, L (lens) ([1]; 0.8 mg/kg in diet): 26%; % Lowering Dulcitol Accumulation IN VIVO, N (sciatic nerve) ([2]; 0.4 mg/kg in diet): 100%; % Lowering Dulcitol Accumulation IN VIVO, N (sciatic nerve) ([2]; 0.8 mg/kg in diet): 100%
